What all share (format): cell-based
The test system of one assay is T-47D cells. Briefly: Inhibition of cell proliferation in T-47D cells (CCK-8). The following applies: 6 days treatment, CCK-8 cell viability. An outline of the steps: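 T-47D cells (3,000/well) in RPMI-1640 with 10% FBS were exposed to a concentration range of PROTAC compounds for 6 days at 37 °C, 5% CO2. Viability read by CCK-8; IC50 fitted from inhibition rate.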

A further assay deals with MCF-7 cells. Briefly: Inhibition of cell proliferation in MCF-7 cells (CCK-8). The following applies: Homo sapiens, MCF7, 144 h, MCF-7 cell proliferation, 6 days treatment. A digest of the protocol: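 MCF-7 cells, 800 per well in DMEM plus 10% FBS, exposed to graded PROTAC concentrations for 6 days at 37 °C, 5% CO2. Viability by CCK-8; IC50 fitted from inhibition rates.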

The target in assay [1] is T1, ERα (Homo sapiens, UniProt P03372).
T1 sequence (P03372 1-595): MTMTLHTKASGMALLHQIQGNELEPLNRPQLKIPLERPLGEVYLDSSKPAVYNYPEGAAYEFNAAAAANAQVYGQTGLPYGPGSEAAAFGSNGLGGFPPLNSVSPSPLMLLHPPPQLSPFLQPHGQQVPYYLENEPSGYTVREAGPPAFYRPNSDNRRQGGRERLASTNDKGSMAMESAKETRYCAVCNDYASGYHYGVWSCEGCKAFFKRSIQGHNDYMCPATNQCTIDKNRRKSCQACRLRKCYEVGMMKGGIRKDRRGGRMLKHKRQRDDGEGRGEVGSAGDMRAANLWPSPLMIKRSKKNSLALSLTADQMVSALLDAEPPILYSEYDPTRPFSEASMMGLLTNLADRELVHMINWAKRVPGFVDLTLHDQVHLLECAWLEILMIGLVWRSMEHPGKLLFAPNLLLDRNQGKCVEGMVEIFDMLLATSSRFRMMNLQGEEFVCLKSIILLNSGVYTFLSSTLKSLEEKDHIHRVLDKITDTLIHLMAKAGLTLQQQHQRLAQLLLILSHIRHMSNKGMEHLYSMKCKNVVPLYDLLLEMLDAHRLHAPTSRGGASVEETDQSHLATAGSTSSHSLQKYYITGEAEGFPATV
In words: ERα degradation in T-47D cells (Western blot). Particulars: 4 hours. As for the experimental part:
(§1) Western blotting: The total protein concentration in the collected cell lysate supernatant was determined using the BCA protein concentration assay kit (enhanced) (P0009, Beyotime). Based on the total protein concentration determined by BCA, the protein concentration was adjusted to 1 µg/µL using RIPA lysis buffer and 5× SDS-PAGE protein loading buffer (MB01015, GenScript). The protein was denatured in a 95°C water bath for 5 minutes. After denaturation, the condensed water on the tube wall was collected by centrifugation and used as the loading sample. 20µL of the loading sample (20 µg of total protein) was added to the sample well of a 12% precast gel (M00669, GenScript). Electrophoresis was performed at 100 V for 20 minutes, followed by switching to 150 V for 40 minutes. After electrophoresis, the proteins from the SDS-PAGE gel were transferred to a PVDF membrane at a constant voltage of 100 V for 60 minutes. After transfer, the PVDF membrane corresponding to the ERα protein and internal reference protein was cut and incubated in 1× QµickBlock blocking buffer (P0252, Beyotime) for 30 minutes at room temperature on a shaker. After blocking, the ERα primary antibody (1:1000, 8644S, CST) was added and incubated overnight at 4°C on a shaker. The PVDF membrane was washed three times with 1× TBST buffer for 5 minutes each. Rabbit IgG (H+L) secondary antibody (1:7500, SA5-35571, Invitrogen) was added and incubated for 1 hour at room temperature on a shaker. The membrane was then washed again three times with 1× TBST buffer for 5 minutes each. Finally, the membrane was imaged using a dual-color infrared laser imaging system (Odyssey DLx, LICOR). Protein maps were analyzed for grayscale value using Image Studio Lite software. The grayscale correction value for each sample was calculated using the formula: grayscale correction value = grayscale value of the target protein / grayscale value of the corresponding internal reference. Then the grayscale correction values of the compound group and the control group were compared to calculate the degradation rate of the compound. Table 4 Degradation rate of ERα by PROTAC compounds of the present invention and positive control in MCF-7 cells (%)
Test Example 5 Degradation of ERα by the PROTAC compounds disclosed in the present invention in T-47D cells
T-47D (ATCC) cells were cultured in PRMI-1640 medium (30-2001, ATCC) containing 10% FBS (10099141C, Gibco) at 37°C and 5% CO2 until they entered the logarithmic growth phase. T-47D cells were seeded at a density of 3×10^5 cells/well in a 6-well plate and incubated at 37°C, 5% CO2 for 24 hours. After cell attachment, 1 µL of compound dimethyl sulfoxide solution (final concentration 0.15-1000 nM) was added and incubated for another 4 hours at 37°C, 5% CO2 incubator. After 4 hours, the culture medium was discarded, and each well was washed once with 1 mL of pre-chilled 1× DPBS. The cells were then lysed with 50 µL of RIPA lysis buffer (P0013B, Beyotime) and 1× protease inhibitor cocktail (P1005, Beyotime). After incubation on ice for 20 minutes, the cells were centrifuged at 14,000 g at 4°C for 30 minutes. The supernatant was carefully collected and analyzed for ERα protein levels by immunoblotting. Table 5 Degradation rate of ERα by PROTAC compounds of the present invention and positive control sample in T-47D cells (%)

Assay [2] addresses T1, ERα. Briefly: ERα degradation in MCF-7 cells (Western blot). Particulars: 4 hours. The arrangement: host or cells: MCF-7. As for the experimental part: Test Example 4 Effect of PROTAC Compounds Disclosed in the Present Invention on ERα Degradation in MCF-7 Cells
MCF-7 (ATCC) cells were cultured in DMEM medium (11995-065, Gibco) containing 10% FBS (10099141C, Gibco) at 37°C and 5% CO2 until they entered the logarithmic growth phase. MCF-7 cells were plated at a density of 3×10^5 cells/well in a 6-well plate and incubated at 37°C, 5% CO2 for 24 hours. After cell attachment, 1µL of compound in dimethyl sulfoxide (final concentration 0.15-1000nM) was added and incubated for another 4 hours at 37°C, 5% CO2 incubator. After 4 hours, the culture medium was discarded, and each well was washed once with 1 mL of pre-chilled 1× DPBS. The cells were then lysed with 50 µL of RIPA lysis buffer (P0013B, Beyotime) and 1× protease inhibitor cocktail (P1005, Beyotime). After incubation on ice for 20 minutes, the cells were centrifuged at 14,000 g at 4°C for 30 minutes. The supernatant was carefully collected and analyzed for ERα protein levels by immunoblotting.
as §1

Consider `O=C1CCC(N2Cc3c(ccc4c3OCC43CCC4(CC3)CN(C3CCC5(CC3)CN(c3ccc([C@@H]6c7ccc(O)cc7CC[C@@H]6c6ccccc6)cc3)C5)C4)C2=O)C(=O)N1` (stereo partly drawn) [ER-P-10, 3-(1-(2-(4-((1R,2S)-6-hydroxy-2-phenyl-1,2,3,4-tetrahydronaphthalen-1-yl)phenyl)-2-azaspiro[3.5]nonan-7-yl)-6'-oxo-6',8'-dihydro-2'H,7'H-dipyrazole[azetidine-3,1'-cyclohexane-4',3"-furo[2,3-e]isoindol]-7'-yl)piperidine-2,6-dione], for which the IC50 is 1.63 nM in the assay with T-47D cells (Homo sapiens, T47D, 144 h) and 8.53 nM in the assay with MCF-7 cells. In addition, the figures for the “Degradation rate of ERα in T-47D cells (%)” value on ERα [1] (1nM) and on ERα [1] (10nM) were 51% and 77%, respectively. Further, the results for the “Degradation rate of ERα in MCF-7 cells (%)” value at ERα [2] (1nM) and at ERα [2] (10nM) were 24% and 57%, respectively.

As for `Cn1c(=O)n(C2CCC(=O)NC2=O)c2cc3c(cc21)C1(CCN(C2CCN(c4ccc([C@@H]5c6ccc(O)cc6CC[C@@H]5c5ccccc5)cc4)CC2)CC1)CO3` (stereo partly drawn) [ER-P-11, 3-(1'-(1-(4-((1R,2S)-6-hydroxy-2-phenyl-1,2,3,4-tetrahydronaphthalen-1-yl)phenyl)piperidin-4-yl)-1-methyl-2-oxo-1,2-dihydro-3H,6H-spiro[benzofuro[5,6-d]imidazole-7,4'-piperidin]-3-yl)piperidine-2,6-dione], the IC50 is 20.8 nM with T-47D cells (Homo sapiens, T47D, 144 h) and 3540 nM in the assay on MCF-7 cells. The “Degradation rate of ERα in T-47D cells (%)” value on ERα [1] (1nM) and at ERα [1] (10nM) was 12% throughout. Besides, the “Degradation rate of ERα in MCF-7 cells (%)” value at ERα [2] (1nM) is recorded as -18%; on ERα [2] (10nM), -33%.

`Cn1c(=O)n(C2CCC(=O)NC2=O)c2cc3c(cc21)C1(CCN(C2CC4(CCN(c5ccc([C@@H]6c7ccc(O)cc7CC[C@@H]6c6ccccc6)cc5)CC4)C2)CC1)CO3` (stereo partly drawn) [ER-P-12, 3-(1'-(7-(4-((1R,2S)-6-hydroxy-2-phenyl-1,2,3,4-tetrahydronaphthalen-1-yl)phenyl)-7-azaspiro[3.5]nonan-2-yl)-1-methyl-2-oxo-1,2-dihydro-3H,6H-spiro[benzofuro[5,6-d]imidazole-7,4'-piperidin]-3-yl)piperidine-2,6-dione]: the IC50 in the assay with T-47D cells (Homo sapiens, T47D, 144 h) is 2.4 nM; with MCF-7 cells it was 25.2 nM. The “Degradation rate of ERα in T-47D cells (%)” value at ERα [1] (1nM) is 34%; on ERα [1] (10nM), 38%. Moreover, the entries for the “Degradation rate of ERα in MCF-7 cells (%)” value on ERα [2] (1nM) and at ERα [2] (10nM) were -9% and -11%, respectively.

For `Cn1c(=O)n(C2CCC(=O)NC2=O)c2ccc3c(c21)OCC31CCN(C2CCN(C(=O)C3CCN(c4ccc([C@@H]5c6ccc(O)cc6CC[C@@H]5c5ccccc5)cc4)CC3)CC2)CC1` (stereo partly drawn) [ER-P-13, 3-(1'-(1-(1-(4-((1R,2S)-6-hydroxy-2-phenyl-1,2,3,4-tetrahydronaphthalen-1-yl)phenyl)piperidine-4-carbonyl)piperidin-4-yl)-1-methyl-2-oxo-1,2-dihydro-3H,7H-spiro[benzofuro[6,7-d]imidazole-6,4'-piperidin]-3-yl)piperidine-2,6-dione], the IC50 in the assay with T-47D cells (Homo sapiens, T47D, 144 h) turned out to be 0.47 nM; with MCF-7 cells, 18.9 nM. In addition, the figures for the “Degradation rate of ERα in T-47D cells (%)” value on ERα [1] (1nM) and on ERα [1] (10nM) were 79% and 74%, respectively. Besides, the “Degradation rate of ERα in MCF-7 cells (%)” value at ERα [2] (1nM) amounted to 72%; on ERα [2] (10nM) it was 85%.

With `Cn1c(=O)n(C2CCC(=O)NC2=O)c2cc3c(cc21)C1(CCN(C2CCN(C(=O)C4CCN(c5ccc([C@@H]6c7ccc(O)cc7CC[C@@H]6c6ccccc6)cc5)CC4)CC2)CC1)CO3` (stereo partly drawn) [ER-P-14, 3-(1'-(1-(1-(4-((1R,2S)-6-hydroxy-2-phenyl-1,2,3,4-tetrahydronaphthalen-1-yl)phenyl)piperidine-4-carbonyl)piperidin-4-yl)-1-methyl-2-oxo-1,2-dihydro-3H,6H-spiro[benzofuro[5,6-d]imidazole-7,4'-piperidin]-3-yl)piperidine-2,6-dione], the IC50 is 0.81 nM in the assay on T-47D cells (Homo sapiens, T47D, 144 h) and 34.6 nM with MCF-7 cells. The “Degradation rate of ERα in T-47D cells (%)” value on ERα [1] (1nM) is on record as 64%; at ERα [1] (10nM) it was 61%. The figures for the “Degradation rate of ERα in MCF-7 cells (%)” value at ERα [2] (1nM) and at ERα [2] (10nM) were 69% and 63%, respectively.

Consider `Cn1c(=O)n(C2CCC(=O)NC2=O)c2ccc3c(c21)OCC31CCN(C2CC3(CCN(c4ccc([C@@H]5c6ccc(O)cc6CC[C@@H]5c5ccccc5)cc4)CC3)C2)CC1` (stereo partly drawn) [ER-P-15, 3-(1'-(7-(4-((1R,2S)-6-hydroxy-2-phenyl-1,2,3,4-tetrahydronaphthalen-1-yl)phenyl)-7-azaspiro[3.5]nonan-2-yl)-1-methyl-2-oxo-1,2-dihydro-3H,7H-spiro[benzofuro[6,7-d]imidazole-6,4'-piperidin]-3-yl)piperidine-2,6-dione], for which the figures for the IC50 with T-47D cells and with MCF-7 cells were 0.65 nM and 2980 nM, respectively. For the same molecule, the “Degradation rate of ERα in T-47D cells (%)” value stood at 44% at ERα [1] (1nM) and 31% at ERα [1] (10nM). Also, the figures for the “Degradation rate of ERα in MCF-7 cells (%)” value on ERα [2] (1nM) and on ERα [2] (10nM) were 22% and 26%, respectively.

As to `Cn1c(=O)n(C2CCC(=O)NC2=O)c2ccc3c(c21)OCC31CCN(C2CCC3(CC2)CCN(c2ccc([C@@H]4c5ccc(O)cc5CC[C@@H]4c4ccccc4)cc2)CC3)CC1` (stereo partly drawn) [ER-P-16, 3-(1'-(3-(4-((1R,2S)-6-hydroxy-2-phenyl-1,2,3,4-tetrahydronaphthalen-1-yl)phenyl)-3-azaspiro[5.5]undecan-9-yl)-1-methyl-2-oxo-1,2-dihydro-3H,7H-spiro[benzofuro[6,7-d]imidazole-6,4'-piperidin]-3-yl)piperidine-2,6-dione], the IC50 is 0.62 nM in the assay on T-47D cells (Homo sapiens, T47D, 144 h) and 885 nM with MCF-7 cells. Moreover, the “Degradation rate of ERα in T-47D cells (%)” value amounted to 69% on ERα [1] (1nM) and 73% on ERα [1] (10nM). In addition, the “Degradation rate of ERα in MCF-7 cells (%)” value on ERα [2] (1nM) is 43%; at ERα [2] (10nM), 62%.

Values taken from patent EP4722219A1 (Gan & Lee Pharmaceuticals Co., Ltd., priority 2023, dated 2024).
